Measurements published in PMC6214120 (International Journal of Molecular Sciences, 2018).
Where two headings read alike, the source gives them in different places. Values belong to the molecule of their own block, whether it stands above or below them.

Experiments:
chicken = assay: In vivo experiments with BCRP inhibitor Ko143 in chicken; settings: in vivo experiments with Ko143 as additional BCRP inhibitor were unsuccessful
[1] = Pharmacokinetic studies of FFC in broilers; format: in vivo, Arbor Acres (AA) broilers; settings: for bioavailability: read-out: F (absolute bioavailability); for AUC(0-t): read-out: AUC0~12h; for half-life: read-out: T1/2β (converted)
Procedure: Ten 4-week and fifteen 8-week old AA broilers were used in this study and divided into five groups (5 birds in each group) as follows: Group I, 4-week old birds given FFC orally with a single dose of 20 mg/kg through crop tube gavage; group II, 8-week old birds given FFC orally with a single dose of 20 mg/kg through crop tube gavage; group III, 4-week old birds given FFC intravenously with a single dose of 10 mg/kg through the left brachialis vein; group IV, 8-week old birds given FFC intravenously with a single dose of 10 mg/kg through the left brachialis vein; group V, 8-week old birds orally given FFC (20 mg/kg) plus gefitinib (100 mg/kg, an inhibitor of BCRP) through crop tube gavage. Groups I, II, III, and IV were used to study the influence of age-dependent BCRP expression on FFC pharmacokinetics. The data from group II and group V were used to further analyze the effects of BCRP on FFC pharmacokinetics. […] Plasma was rapidly harvested by centrifugation at 5000 g for 5 min and stored at −80 °C until assayed. The extraction procedures and HPLC method were modified from the previous method. All plasma samples were analyzed on Thermo fisher U3000 high-performance liquid chromatography (HPLC) system. […] The acetonitrile supernatants were combined, evaporated under nitrogen at 40 °C, and dissolved in 0.2 mL of mobile phase, from which 20 μL was injected into HPLC system. The mobile phase consisted of a mixture of acetonitrile-water at a ratio of 20:80 (v/v). The detection conditions as the follows: wavelength at 224 nm, the column temperature at 35 °C and the flow rate at 1 mL/min. The calibration samples were prepared with eight different FFC concentrations using blank plasma. […] The average of inter- and intra-day precision (RSD) was <11%. […] Pharmacokinetic calculations were performed on each individual set of data using 3p97 practical pharmacokinetic software (Version 97, Chinese Pharmacologic Association, Beijing, China). Least-squares fits were determined for both biexponential (two-compartment model) and single exponential (one-compartment model) equations. The number of exponential terms required to describe the plasma concentration-time data for each boiler chickens was determined by application of Akaike’s Information Criterion (AIC Method). The area under the concentration-time curve (AUC) was calculated according to the linear trapezoidal method.

chicken BCRP = assay: Bidirectional transport assay in MDCK-chAbcg2 cells; format: in vitro ADME; settings: MDCK-chAbcg2 vs MDCK, gefitinib as inhibitor
Procedure: (§1) Wild-type MDCK cells and MDCK-chAbcg2 cells were seeded into Transwell® inserts (Catalogue number 3460, Corning Coster Corp. Acton, MA, USA) in 12-well plates at a density of 1 × 10^5 cells/insert and cultured for 5 days. The cell layer integrity was tested before transport by measuring transepithelial electrical resistance (TEER) across the apical (AP) and the basolateral (BL) sides of the cell line using a Millicell-ERS epithelial voltometer (Millipore, Burlington, MA, USA). The bidirectional transport experiments were conducted with the transport buffers containing either FFC (50 μM) or the mixture of FFC and gefitinib instead of the blank medium or the medium contain gefitinib (100 μM). After the cells were incubated with transport buffers for 4 h, the samples collected from the receiving sides were submitted for HPLC analysis. The TEER values of each monolayer were checked again at the end of the transport studies to ensure the integrities of cell monolayers during the whole transport analysis. According to FDA guidance a drug with a net efflux ratio that is over 2.0 will be considered as a potential substrate of an efflux pump. The apparent permeability coefficients (Papp) across cell monolayer were calculated as follows: Papp = (dQ/dt)/(A × C0), where A is the area of filter membrane, C0 is the initial concentration of the tested drug, dQ is the amount of transported drug, and dt is time elapsed. The efflux ratio (ER) was calculated from (Papp B→A)/(Papp A→B) and the net efflux ratio (NER) was calculated from […]. Each group has 5 cell monolayers, and the experiment was repeated three times.

chicken BCRP (Abcg2) = assay: as above; format: in vitro ADME; settings: chicken, FFC 50 μM, 4 h
Procedure: as §1

[2] = Bidirectional transport assay in wild-type MDCK cells; format: in vitro ADME, canine; settings: dog, FFC 50 μM
Procedure: as §1

[3] = Arbor Acres (AA) broiler, plasma, iv, 10 mg/kg, intravenous 10 mg/kg, 4-week old broilers
[4] = Arbor Acres (AA) broiler, plasma, iv, 10 mg/kg, intravenous 10 mg/kg, 8-week old broilers
[5] = Arbor Acres (AA) broiler, plasma, po, 20 mg/kg, oral 20 mg/kg, 4-week old broilers
[6] = Arbor Acres (AA) broiler, plasma, po, 20 mg/kg, oral 20 mg/kg, 8-week old broilers
[7] = Arbor Acres (AA) broiler, plasma, po, 20 mg/kg, with gefitinib 100 mg/kg (BCRP inhibitor, co-dosed orally), oral 20 mg/kg, 8-week old broilers administered gefitinib (100 mg/kg)
[8] = oral 20 mg/kg, 4-week old broilers
[9] = oral 20 mg/kg, 4 week-old broilers
[10] = oral 20 mg/kg, 8-week old broilers
[11] = oral 20 mg/kg, 8-week old broilers administered gefitinib (100 mg/kg)
[12] = oral 20 mg/kg, 8-week old broilers with oral gefitinib 100 mg/kg
[13] = oral 20 mg/kg, 8 week old broilers
[14] = MDCK-chAbcg2, with gefitinib (100 μM)
[15] = MDCK-chAbcg2, without gefitinib

SMILES: COc1ccc2c3c([nH]c2c1)[C@H](CC(C)C)N1C(=O)[C@H](CCC(=O)OC(C)(C)C)NC(=O)[C@@H]1C3 [Ko143]
- Toxicity in chicken (chicken): observed toxicity in chicken

- bioavailability ([1]; Arbor Acres (AA) broiler, chicken, plasma, po, with gefitinib 100 mg/kg (BCRP inhibitor, co-dosed orally), oral 20 mg/kg, 8-week old broilers administered gefitinib (100 mg/kg)): 78.4%
- AUC(0-t) [1, 3]: 5410 ± 310 ng·h/mL
- half-life [1, 3]: 60 ± 51 min
- Vd ([1]; Arbor Acres (AA) broiler, plasma, iv, 10 mg/kg, intravenous 10 mg/kg, 4-week old broilers, read-out: Vd): 1.51 ± 0.62 L/kg
- AUC(0-t) [1, 4]: 5110 ± 1890 ng·h/mL
- half-life [1, 4]: 47.4 ± 10.8 min
- Vd ([1]; Arbor Acres (AA) broiler, plasma, iv, 10 mg/kg, intravenous 10 mg/kg, 8-week old broilers, read-out: Vd): 1.18 ± 0.29 L/kg
- bioavailability ([1]; Arbor Acres (AA) broiler, plasma, po, 20 mg/kg, oral 20 mg/kg vs i.v. 10 mg/kg, 4-week old broilers): 79.3%
- bioavailability ([1]; Arbor Acres (AA) broiler, plasma, po, 20 mg/kg, oral 20 mg/kg vs i.v. 10 mg/kg, 8-week old broilers): 48%
- Cmax [1, 5]: 3870 ± 960 ng/mL
- Tmax [1, 5]: 37.8 ± 12.6 min
- AUC(0-t) [1, 5]: 8580 ± 1880 ng·h/mL
- half-life [1, 5]: 196 ± 72 min
- Cmax [1, 6]: 2930 ± 1070 ng/mL
- Tmax [1, 6]: 37.2 ± 11.4 min
- AUC(0-t) [1, 6]: 4910 ± 1560 ng·h/mL
- half-life [1, 6]: 56.4 ± 10.2 min
- Cmax [1, 7]: 1730 ± 480 ng/mL
- Tmax [1, 7]: 120 ± 84.6 min
- AUC(0-t) [1, 7]: 8010 ± 1650 ng·h/mL
- bioavailability [1, 7]: 78.4%
- half-life [1, 7]: 210 ± 201 min
- ClB ([1]; intravenous 10 mg/kg, 4-week old broilers): 27.5 ± 9 mL/min/kg
- ClB ([1]; intravenous 10 mg/kg, 8-week old broilers): 35.7 ± 11.2 mL/min/kg
- Decrease of bioavailability in 8-week old broilers compared with 4-week old birds ([1]; oral 20 mg/kg): 31.3%
- ClB [1, 8]: 40.5 ± 8.83 mL/min/kg
- Vd [1, 8]: 3.42 ± 1.18 L/kg
- AUC0~12h [1, 9]: 8.58 (µg/mL)·h
- Cl [1, 9]: 2.43 mg/kg/h/(μg/mL)
- Vd [1, 9]: 3.42 (mg/kg)/(µg/mL)
- ClB [1, 10]: 73.8 ± 24.3 mL/min/kg
- Vd [1, 10]: 5.64 ± 0.60 L/kg
- ClB [1, 11]: 42.8 ± 8.67 mL/min/kg
- Vd [1, 11]: 7.39 ± 2.98 L/kg
- AUC0~12h [1, 12]: 8.01 (µg/mL)·h
- Cl [1, 12]: 2.57 mg/kg/h/(μg/mL)
- AUC0~12h [1, 13]: 4.91 (µg/mL)·h
- Cl [1, 13]: 4.43 mg/kg/h/(μg/mL)
- Vd [1, 13]: 5.64 (mg/kg)/(µg/mL)
- Substrate status for chicken BCRP (FDA criteria: NER over 2.0 and efflux reversed by inhibitor) (chicken BCRP): substrate of chicken BCRP
- Papp A→B at 4 h, 50 μM (chicken BCRP (Abcg2); [14]): 0.37 ± 0.02 ×10⁻⁶ cm/s
- Papp B→A at 4 h, 50 μM (chicken BCRP (Abcg2); [14]): 0.43 ± 0.01 ×10⁻⁶ cm/s
- Papp A→B at 4 h, 50 μM (chicken BCRP (Abcg2); [15]): 0.28 ± 0.01 ×10⁻⁶ cm/s
- Papp B→A at 4 h, 50 μM (chicken BCRP (Abcg2); [15]): 0.68 ± 0.04 ×10⁻⁶ cm/s
- Papp A→B at 4 h, 50 μM ([2]; with gefitinib (100 μM)): 0.37 ± 0.03 ×10⁻⁶ cm/s
- Papp B→A at 4 h, 50 μM ([2]; with gefitinib (100 μM)): 0.39 ± 0.01 ×10⁻⁶ cm/s
- Papp A→B at 4 h, 50 μM ([2]; without gefitinib): 0.4 ± 0.04 ×10⁻⁶ cm/s
- Papp B→A at 4 h, 50 μM ([2]; without gefitinib): 0.4 ± 0.01 ×10⁻⁶ cm/s
SMILES: CS(=O)(=O)c1ccc([C@@H](O)[C@@H](CF)NC(=O)C(Cl)Cl)cc1 [florfenicol, Florfenicol]
